Assay results as given in US12138341B1 (Technical Institute of Physics and Chemistry, CAS, priority 2023, dated 2024).

Assay: In vivo pharmacokinetics experiment of CBD microneedle in a rat
Design: species or system SD rat
Settings: gavage group (oral administration), FIG. 7

C=C(C)[C@@H]1CCC(C)=C[C@H]1c1c(O)cc(CCCCC)cc1O [CBD, cannabidiol]
time drug concentration in plasma is maintained: 2 days
